Data from patent publication US9945862B2, “Biomarkers for predicting and assessing responsiveness of thyroid and kidney cancer subjects to lenvatinib compounds” (Eisai R&D Management Co., Ltd., priority 2011, dated 2018).

What was measured:
thyroglobulin = assay: Serum thyroglobulin, chemiluminescent immunometric assay (IMMULITE 2000), pre- and post-treatment with E7080; type: in vivo, human
Description: The serum for the thyroglobulin assays was collected within 72 hours prior to Day 1 of all cycles. 24 mg of E7080 was administered orally, daily continuously in 28-day cycles. Serum samples from 58 patients were used for thyroglobulin measurements. 6 mL of blood was drawn into red top tubes and let to clot at room temperature for at least 30 min. Within 60 minutes of sample collection, the tubes were centrifuged for 15 minutes at 20-25° C. at 1000×g. The supernatant was drawn without disturbing the pellet, put into sample tubes with serum filter and shipped frozen to the central lab for testing on the day of collection. The level of thyroglobulin was detected by a solid-phase, chemiluminescent immunometric assay (IMMULITE 2000 Thyroglobulin Assay System, Siemens) following standard operating procedure. In brief, serum thyroglobulin was captured by beads coated with anti-thyroglobulin antibody and detected using anti-thyroglobulin antibody linked to alkaline phosphatase. The level of serum thyroglobulin was calculated from a standard curve generated with lyophilized thyroglobulin. Serum thyroglobulin was stable for up to 2 months when stored frozen for the assay. The sensitivity of this assay was 0.2 ng/ml. From 58 patient samples, 50 pre- and post-treatment blood samples at maximum were used for these analyses. Dramatic changes in thyroglobulin levels were observed 29 days after the start of treatment with E7080.

[1] = test system: differentiated thyroid cancer patients; assay: Multivariate prediction models of PFS combining mutations and blood biomarkers (Cox proportional hazards model, hazard threshold, log rank test); type: in vivo, human; settings: pre-treatment
Description: All factors (i.e., mutations, thyroglobulin, cytokine, chemokine and angiogenic factors) were used as independent variables of interest, that is, as biomarker candidates. PFS was used as a dependent variable, that is, as one of the clinical outcomes, in this analysis. Firstly, all factors were screened according to p-values calculated by Cox proportional hazards model with single factor. Secondly, all combinations of the screened factors were tested by Cox proportional hazards model to find significant factors in all combinations of the factors. Combinations in which all factors were significant were chosen for further analysis. Hazard functions of the combinations of factors defined by their coefficients were obtained from this analysis. Each patient has his/her own hazard value for each model, so that patients can be assigned into two groups when a threshold of hazard is given for a model. After grouping patients, log rank test of progression free survival was performed to test difference of survival curves between two groups (low hazard and high hazard). The best threshold of hazard for each model of combination of factors was identified by sweeping threshold to calculate log rank test p-values and finding a threshold that minimized the smoothed curve constructed from the p-values, which was similar to the approach described in U. Abel, J. Berger and H. Wiebelt, “CRITLEVEL: An Exploratory Procedure for the Evaluation of Quantitative Prognostic Factors”, Methods Inf. Medicine, 23(3):154-6(1984). The best thresholds of the models divided patients into high and low hazard groups. Patients are predicted as longer PFS when their hazard value is lower than the threshold.

## COc1cc2nccc(Oc3ccc(NC(=O)NC4CC4)c(Cl)c3)c2cc1C(N)=O [E7080, 4-(3-chloro-4-(cyclopropylaminocarbonyl)aminophenoxy)-7-methoxy-6-quinolinecarboxamide]
thyroglobulin; CYCLE2 DAY 1/CYCLE1 DAY 1
  Thyroglobulin level ratio (median), Other group (SD or PD): 0.288
  Thyroglobulin level ratio (median), PR group: 0.195
thyroglobulin; CYCLE3 DAY 1/CYCLE1 DAY 1
  Thyroglobulin level ratio (median), Other group (SD or PD): 0.221
  Thyroglobulin level ratio (median), PR group: 0.109
thyroglobulin; CYCLE4 DAY 1/CYCLE1 DAY 1
  Thyroglobulin level ratio (median), Other group (SD or PD): 0.227
  Thyroglobulin level ratio (median), PR group: 0.079
thyroglobulin; CYCLE5 DAY 1/CYCLE1 DAY 1
  Thyroglobulin level ratio (median), Other group (SD or PD): 0.332
  Thyroglobulin level ratio (median), PR group: 0.106
thyroglobulin; CYCLE6 DAY 1/CYCLE1 DAY 1
  Thyroglobulin level ratio (median), Other group (SD or PD): 0.198
  Thyroglobulin level ratio (median), PR group: 0.078
[1]; prediction model: ANG-2
  HR (low vs high hazard group, PFS): 0.545
[1]; prediction model: IL13 + MIP1a
  HR (low vs high hazard group, PFS): 1.00E−09
[1]; prediction model: IL13 + MIP1a + MIP1b
  HR (low vs high hazard group, PFS): 0.121
[1]; prediction model: NRAS mutation + ANG-2 (log10(ANg2))
  HR (low vs high hazard group, PFS): 0.115
[1]; prediction model: NRAS mutation + ANG-2 (log10(Ang290))
  HR (low vs high hazard group, PFS): 0.085
[1]; prediction model: NRAS mutation + VEGFA + ANG-2 + MIP1b + sVEGFR3
  HR (low vs high hazard group, PFS): 2.60E−10
[1]; prediction model: NRAS mutation + VEGFA + MIP1b
  HR (low vs high hazard group, PFS): 0.097
[1]; prediction model: NRAS mutation + VEGFA + MIP1b + sVEGFR3
  HR (low vs high hazard group, PFS): 0.054
[1]; prediction model: NRAS mutation, D(NRAS, MU)
  HR (low vs high hazard group, PFS): 0.124
[1]; prediction model: VEGFA
  HR (low vs high hazard group, PFS): 0.552
[1]; prediction model: VEGFA + ANG-2
  HR (low vs high hazard group, PFS): 0.386
[1]; prediction model: VEGFA + ANG-2 + GCSF
  HR (low vs high hazard group, PFS): 0.413
[1]; prediction model: mutation in any of BRAF, KRAS, NRAS + MIP1a
  HR (low vs high hazard group, PFS): 0.086
[1]; prediction model: mutation in any of BRAF, KRAS, NRAS + VEGFA + MIP1a + MIP1b + IL-6
  HR (low vs high hazard group, PFS): 1.90E−10
[1]; prediction model: mutation in any of KRAS, NRAS + ANG-2
  HR (low vs high hazard group, PFS): 0.083
[1]; prediction model: mutation in any of KRAS, NRAS, D(KRASNRAS, MU)
  HR (low vs high hazard group, PFS): 0.205
